From article PMC11967380, “Rapid Determination of Xa Inhibitor Activity in Blood Using a Microfluidic Device that Measures Platelet Deposition and Fibrin Generation Under Flow” (TH Open: Companion Journal to Thrombosis and Haemostasis, 2025)

Legend:
[1] = system: whole blood clotting on collagen/tissue factor (platelet and fibrin deposition); test: DOAC reversal and detection in blood of DOAC-treated patients (microfluidic platelet and fibrin signal); format: cell-based, human; conditions: 5,000 nM matching DOAC added ex vivo to patient blood, all subjects
Source text: Platelets were labeled in whole blood by the addition of an AlexaFluor 488-conjugated anti-CD61 molecule (Bio-Rad Laboratories) and fibrin was quantified via the addition of AlexaFluor 594-conjugated fibrinogen (Life Technologies Co.), as previously described. Chips were mounted on a Lumascope 620 (Etaluma Inc.) LED epifluorescence microscope with a 2.5× objective (Meiji Techno). Each chip was primed with 1% bovine serum albumin (BSA) in HEPES-buffered saline (HBS) to passivate the surfaces ( Fig. 1A ). A volume of 60 μL of whole blood was added to each inlet well. A vacuum pressure of 140 mbar was applied to the outlet to yield an initial wall shear rate of 200 s ^−1 . Fluorescence images were captured at 10 s intervals for green and red LED channels to obtain kinetic data for platelet and fibrin deposition on the collagen/TF zone for up to 25 min. Images were analyzed with ImageJ to calculate the average pixel brightness of an inner 200 μm by 200 μm region within each clot.
For DOAC-treated patients on either rivaroxaban or apixaban, blood samples were obtained and analyzed, using the microfluidic device to measure platelets and fibrin deposition under flow as described above. […] For subjects 1 through 19, fluorescence data were collected for 15 minutes. […]
Statistical significance was calculated for paired t -tests, using GraphPad Prism 9 (GraphPad Software). […]

[2] = parameters: method as in PMID 31089975, PMID 23999929; conditions: cited from earlier work

Structure (SMILES)	fibrin signal [1]	plasma protein binding [2]
COc1ccc(-n2nc(C(N)=O)c3c2C(=O)N(c2ccc(N4CCCCC4=O)cc2)CC3)cc1 [apixaban]	nearly fully suppressed	high
O=C(NC[C@H]1CN(c2ccc(N3CCOCC3=O)cc2)C(=O)O1)c1ccc(Cl)s1 [rivaroxaban]	nearly fully suppressed	high
